Laboratory results reported in patent US20090221829A1 (priority 2005, published 2009).
Read-outs that look alike come from different tables or passages of the source.

Columns and labels:
various kinds of Candida = assay: MIC (Minimal Inhibitory Concentration) data; format: cell-based
[1] = tested on: Candida albicans(KCTC 1940), Aspergillus niger (ATCC 9642) and Saccharomyces cerevisiae; assay: Relative antifungal activity by agar dilution method (vs Miconazole); format: cell-based;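 further: scores 5 to 7 mean a lower fungicidal concentration than Miconazole so higher is more potent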
Description: Novel compounds represented by the above chemical formula (I), and the relative activities in accordance with the agar dilution method in Sabouraud dextrose agar media, Czapek agar media and Yeast Extract-Peptone-Dextrose agar media for Candida albicans(KCTC 1940), Aspergillus niger (ATCC 9642) and Saccharomyces cerevisiae are described respectively in following Table 1.

[2] = tested on: cultured lung cells derived from chinese hamster; assay: Chromosome aberration test; format: cell-based
salmonella typhimurium = assay: Bacterial reverse mutation test (Ames test); format: cell-based
Micronucleus test = format: in vivo
[3] = Oral toxicity test (general symptoms, weight change, lethal case); format: in vivo, rats (SD); settings: for LD50: SD, rat, in vivo, 1000 mg/kg, rats, oral, read-out: Acute toxicity LD50; for general symptom / lethal case / weight change: oral, 1,000 mg/kg, suspended in propylene glycol, SD rats
Description: Meanwhile, the toxicity test of the compound in table II of the present invention was performed using […]. The compound was suspended in propylene glycol. The resulting suspension was medicated respectively on 6 female rats and 5 male rats (SD) of which age are 5 weeks, via oral after 12 hours starvation. The general symptoms, weight change and lethal case of the above rats were investigated.
In cases of the tests of the compounds (Compound No. 12, 119, 134, 148, 150)(delivery of 1,000 mg/kg), the general symptom and weight change were normal and the lethal case was not observed.

[4] = C. albicans ATCC 11651, unit assumed
[5] = C. albicans ATCC 28838, unit assumed
[6] = C. albicans IFO 1385, unit assumed
[7] = C. albicans OY-003, unit assumed
[8] = C. albicans OY-019, unit assumed
[9] = C. krusei (KCTC7273), unit assumed
[10] = agar dilution method, fungicidal concentration relative to control drug Miconazole (=4)
[11] = cultured lung cells derived from chinese hamster
[12] = antifungal activity relative to Miconazole, agar dilution

Q: For `CCCCCCCCCCCC1=[N+](Cc2ccccc2F)CCc2cc(OC)c(OC)cc21.[Cl-]` [Compound No. 12, 1-n-undecyl-2-(2-fluorophenyl)methyl-3,4-dihydro-6,7-dimethoxyisoquinolinium chloride], which MIC (various kinds of Candida; [4]) is on record?
A: The MIC was 1.56 µg/mL.

Q: What about the MIC (various kinds of Candida; [5]) of the same compound?
A: The MIC was 1.56 µg/mL.

Q: And the MIC (various kinds of Candida; [6])?
A: The MIC was 3.12 µg/mL.

Q: What about the MIC (various kinds of Candida; [7]) of the same compound?
A: Its MIC is 1.56 µg/mL.

Q: What about the MIC (various kinds of Candida; [8]) of the same compound?
A: Its MIC is 3.12 µg/mL.

Q: And the MIC (various kinds of Candida; C. albicans U.K, unit assumed)?
A: The MIC was 1.56 µg/mL.

Q: What about the MIC (various kinds of Candida; C. glabrata, unit assumed) of the same compound?
A: The MIC was 1.56 µg/mL.

Q: What about the MIC (various kinds of Candida; C. glulliermondi, unit assumed) of the same compound?
A: The MIC was 1.56 µg/mL.

Q: What about the MIC (various kinds of Candida; [9]) of the same compound?
A: Its MIC is 6.25 µg/mL.

Q: And the MIC (various kinds of Candida; C. parapsilosis, unit assumed)?
A: Its MIC is 1.56 µg/mL.

Q: And the “Relative Activity” value [1, 10]?
A: The value was 2.

Q: What about the “Genetic toxicity Chromosome abmormality test” value [2] of the same compound?
A: Its value is “negative”.

Q: And the “chromosome aberration test result” value [2]?
A: The value was “negative”.

Q: And the “Genetic toxicity AMES test” value (salmonella typhimurium)?
A: The value was “negative”.

Q: What about the “bacterial reverse mutation test (Ames test) result” value (“bacterial reverse mutation test” for short) (salmonella typhimurium) of the same compound?
A: The value was “negative”.

Q: And the “Genetic toxicity Nucleus test” value (Micronucleus test; male ICR mice)?
A: The value was “negative”.

Q: What about the micronucleus test result (Micronucleus test; mouse, in vivo) of the same compound?
A: Its micronucleus test result is “negative”.

Q: What about the LD50 ([3]; female) of the same compound?
A: The LD50 was > 1000 mg/kg.

Q: And the LD50 ([3]; male)?
A: The LD50 was > 1500 mg/kg.

Q: And the general symptom [3]?
A: Its general symptom is “normal”.

Q: And the lethal case [3]?
A: Its lethal case is “not observed”.

Q: What about the weight change [3] of the same compound?
A: Its weight change is “normal”.

Q: With `CCCCCCCCCCCC1=[N+](Cc2ccc(C(C)(C)C)cc2)CCc2cc(NC)c(OC)cc21` as the compound, how does the MIC (various kinds of Candida; C. glabrata) read?
A: Its MIC is 3.125.

Q: What about the MIC (various kinds of Candida; C. glulliermondi) of the same compound?
A: The MIC was 3.125.

Q: What about the “Relative Activity” value [1, 10] of the same compound?
A: The value was 1.

Q: What about the “Genetic toxicity Chromosome abmormality test” value [2, 11] of the same compound?
A: Its value is “negative”.

Q: And the “chromosome aberration test result” value [2, 11]?
A: The value was “negative”.

Q: And the “Genetic toxicity AMES test” value (salmonella typhimurium)?
A: The value was “negative”.

Q: And the “bacterial reverse mutation test” value (salmonella typhimurium)?
A: The value was “negative”.

Q: And the “Genetic toxicity Nucleus test” value (Micronucleus test; male ICR mice)?
A: Its value is “negative”.

Q: What about the micronucleus test result (Micronucleus test; male ICR mice) of the same compound?
A: The micronucleus test result was “negative”.

Q: What about the LD50 ([3]; female) of the same compound?
A: Its LD50 is > 1500 mg/kg.

Q: And the LD50 ([3]; male)?
A: Its LD50 is > 2500 mg/kg.

Q: And the general symptom [3]?
A: The general symptom was “normal”.

Q: What about the lethal case [3] of the same compound?
A: The lethal case was “not observed”.

Q: And the weight change [3]?
A: The weight change was “normal”.

Q: With `COc1cc2cc[n+](Cc3cccc(OC)c3OCc3c(F)cccc3Cl)c(CCc3ccc(C(C)(C)C)cc3)c2cc1OC` [Compound No. 150, 1-(2-(4-t-butylphenyl))ethyl-2-(2-(2-chloro-6-fluorobenzyloxy)-3-methoxyphenyl)methyl-6,7-dimethoxyisoquinolinium chloride] as the compound, how does the MIC (various kinds of Candida; [4]) read?
A: The MIC was 1.56 µg/mL.

Q: And the MIC (various kinds of Candida; [5])?
A: The MIC was 1.56 µg/mL.

Q: And the MIC (various kinds of Candida; [6])?
A: The MIC was 6.25 µg/mL.

Q: And the MIC (various kinds of Candida; [7])?
A: The MIC was 0.78 µg/mL.

Q: What about the MIC (various kinds of Candida; [8]) of the same compound?
A: The MIC was 1.56 µg/mL.

Q: And the MIC (various kinds of Candida; C. albicans U.K, unit assumed)?
A: Its MIC is 0.78 µg/mL.

Q: What about the MIC (various kinds of Candida; C. glabrata, unit assumed) of the same compound?
A: The MIC was 12.5 µg/mL.

Q: And the MIC (various kinds of Candida; C. glulliermondi, unit assumed)?
A: Its MIC is 1.6 µg/mL.

Q: And the MIC (various kinds of Candida; [9])?
A: The MIC was 1.56 µg/mL.

Q: And the MIC (various kinds of Candida; C. parapsilosis, unit assumed)?
A: The MIC was 12.5 µg/mL.

Q: What about the “Relative Activity” value [1, 12] of the same compound?
A: The value was 1.

Q: What about the “Genetic toxicity Chromosome abmormality test” value [2] of the same compound?
A: The value was “negative”.

Q: What about the “chromosome aberration test result” value [2] of the same compound?
A: The value was “negative”.

Q: And the “Genetic toxicity AMES test” value (salmonella typhimurium)?
A: Its value is “negative”.

Q: What about the “bacterial reverse mutation test” value (salmonella typhimurium) of the same compound?
A: The value was “negative”.

Q: What about the “Genetic toxicity Nucleus test” value (Micronucleus test; male ICR mice) of the same compound?
A: The value was “negative”.

Q: And the micronucleus test result (Micronucleus test; mouse, in vivo)?
A: The micronucleus test result was “negative”.

Q: And the LD50 ([3]; female)?
A: Its LD50 is > 1500 mg/kg.

Q: And the LD50 ([3]; male)?
A: The LD50 was > 2000 mg/kg.

Q: What about the general symptom [3] of the same compound?
A: The general symptom was “normal”.

Q: What about the lethal case [3] of the same compound?
A: The lethal case was “not observed”.

Q: And the weight change [3]?
A: The weight change was “normal”.

Q: With `CCCCCCCCCCCCCCCC1=[N+](Cc2c(F)cccc2F)CCc2cc(OC)c(OC)cc21.[Cl-]` [Compound No. 60, 1-n-pentadecyl-2-(2,6-difluorophenyl)methyl-3,4-dihydro-6,7-dimethoxyisoquinolinium chloride] as the compound, how does the “Relative Activity” value [1, 10] read?
A: Its value is 1.

Q: And the melting point?
A: Its melting point is 104 °C.

Q: For `COc1cc2c(cc1OC)C(Cc1ccc(Cl)cc1Cl)=[N+](Cc1ccccc1F)CC2.[Cl-]` [Compound No. 25, 1-(2,4-dichlorophenyl)methyl-2-(2-fluorophenyl)methyl-3,4-dihydro-6,7-dimethoxyisoquinolinium chloride], which “Relative Activity” value [1, 10] is on record?
A: Its value is 6.

Q: What about the melting point of the same compound?
A: The melting point was 182 °C.

Q: For `CCCCCCC1=[N+](Cc2ccc(C(C)(C)C)cc2)CCc2cc(OC)c(OC)cc21.[Cl-]` [Compound No. 126, 1-hexyl-2-(4-t-butylphenyl)methyl-3,4-dihydro-6,7-dimethoxy isoquinolinium chloride], which “Relative Activity” value [1, 10] is on record?
A: Its value is 4.

Q: What about the melting point of the same compound?
A: Its melting point is 34 °C.

Q: Which results are given for `COc1cc2c(cc1OC)C(C)=[N+](Cc1cccc(OC)c1OCc1ccc(C(C)(C)C)cc1)CC2.[Cl-]` [Compound No. 138, 1-methyl-2-(2-(4-t-butylbenzyloxy)-3-methoxyphenyl)methyl-3,4-dihydro-6,7-dimethoxy isoquinolinium chloride]?
A: Relative Activity [1, 10]: 6; melting point: 105 °C

Q: Which results are given for `CCCCCC1=[N+](Cc2c(F)cccc2F)CCc2cc(OC)c(OC)cc21.[Cl-]` [Compound No. 57, 1-n-pentyl-2-(2,6-difluorophenyl)methyl-3,4-dihydro-6,7-dimethoxyisoquinolinium chloride]?
A: Relative Activity [1, 10]: 6; melting point: 196 °C

Q: With `CCCc1c2cc(OC)c(OC)cc2cc[n+]1Cc1c(F)cccc1Cl.[Cl-]` [Compound No. 139, 1-propyl-2-(2-chloro-6-fluorophenyl)methyl-6,7-dimethoxy-isoquinolinium chloride] as the compound, how does the “Relative Activity” value [1, 12] read?
A: Its value is 6.

Q: And the melting point?
A: The melting point was 78 °C.

Q: Which “Relative Activity” value [1, 12] does the source give for `COc1cc2cc[n+](Cc3ccc(C(C)(C)C)cc3)c(C)c2cc1OC.[Cl-]` [Compound No. 143, 1-methyl-2-(4-t-butylphenyl)methyl-6,7-dimethoxyisoquinolinium chloride] here?
A: The value was 6.

Q: And the melting point?
A: Its melting point is 350 °C.

Q: For `COc1cc2c(cc1OC)C(c1ccc(C(C)(C)C)cc1)=[N+](Cc1ccccc1F)CC2.[Cl-]` [Compound No. 22, 1-(4-t-butylphenyl)-2-(2-fluorophenyl)methyl-3,4-dihydro-6,7-dimethoxyisoquinolinium chloride], which “Relative Activity” value [1, 10] is on record?
A: Its value is 6.

Q: And the melting point?
A: Its melting point is 125 °C.

Q: For `COc1cc2c(cc1OC)C(C)=[N+](Cc1ccc(F)c(F)c1)CC2.[Cl-]` [Compound No. 39, 1-methyl-2-(3,4-difluorophenyl)methyl-3,4-dihydro-6,7-dimethoxyisoquinolinium chloride], which “Relative Activity” value [1, 10] is on record?
A: Its value is 6.

Q: What about the melting point of the same compound?
A: Its melting point is 88 °C.

Q: Which “Relative Activity” value [1, 10] does the source give for `COc1cc2c(cc1OC)C(c1cc(F)cc(F)c1)=[N+](Cc1ccccc1F)CC2.[Cl-]` [Compound No. 18, 1-(3,5-difluorophenyl)-2-(2-fluorophenyl)methyl-3,4-dihydro-6,7-dimethoxyisoquinolinium chloride] here?
A: Its value is 6.

Q: And the melting point?
A: Its melting point is 118 °C.

Q: What does the source list for `CCCCCCCCCCCC1=[N+](Cc2ccc(C(C)(C)C)cc2)CCc2cc(OC)c(OC)cc21.[Cl-]` [Compound No. 127, 1-undecyl-2-(4-t-butylphenyl)methyl-3,4-dihydro-6,7-dimethoxy isoquinolinium chloride]?
A: MIC (various kinds of Candida; [4]): 0.78 µg/mL; MIC (various kinds of Candida; [5]): 1.56 µg/mL; MIC (various kinds of Candida; [6]): 0.78 µg/mL; MIC (various kinds of Candida; [7]): 1.56 µg/mL; MIC (various kinds of Candida; [8]): 0.78 µg/mL; MIC (various kinds of Candida; C. albicans U.K, unit assumed): 1.56 µg/mL; MIC (various kinds of Candida; C. glabrata, unit assumed): 1.56 µg/mL; MIC (various kinds of Candida; C. glulliermondi, unit assumed): 1.56 µg/mL; MIC (various kinds of Candida; [9]): 1.56 µg/mL; MIC (various kinds of Candida; C. parapsilosis, unit assumed): 1.56 µg/mL; Relative Activity [1, 10]: 1; melting point: 85 °C

Q: What does the source list for `COc1ccc2c(c1)CC[N+](Cc1ccccc1F)=C2C(C)C.[Cl-]` [Compound No. 83, 1-i-propyl-2-(2-fluorophenyl)methyl-3,4-dihydro-6-methoxyisoquinolinium chloride]?
A: Relative Activity [1, 10]: 6; melting point: 102 °C

Q: For `CC1=[N+](Cc2ccc(F)c(F)c2)CCc2cc3c(cc21)OCO3.[Cl-]` [Compound No. 111, 1-methyl-2-(3,4-difluorophenyl)methyl-3,4-dihydro-6,7-methylenedioxyisoquinolinium chloride], which “Relative Activity” value [1, 10] is on record?
A: The value was 6.

Q: What about the melting point of the same compound?
A: Its melting point is 88 °C.

Q: Which “Relative Activity” value [1, 10] does the source give for `COc1cc2c(cc1OC)C(c1ccc(C(C)(C)C)cc1)=[N+](Cc1ccc(F)c(F)c1)CC2.[Cl-]` [Compound No. 48, 1-(4-t-butylphenyl)-2-(3,4-difluorophenyl)methyl-3,4-dihydro-6,7-dimethoxyisoquinolinium chloride] here?
A: Its value is 6.

Q: And the melting point?
A: Its melting point is 97 °C.
